In US20070197560A1, “cGMP PDE 5 inhibitors for inhalation in the treatment of sexual dysfunction” (priority 1998, published 2007):
Each block holds one molecule with its values, some of them ahead of it.

What was measured:
[1] = rodent pharmacokinetic model simulating inhalation: intratracheal dry powder blend with lactose; conditions: rat
Experimental: (§1) A calculated nominal dose of 8.4 μmol/kg is administered to each of 3 male Wistar:Han rats by administration directly into the trachea via the mouth and vocal chords from a Penn-Century dry powder delivery device actuated via a 2 ml syringe containing air as a propellent.
(§2) A calculated nominal dose of 2.1 μmol/kg is administered to each of 4 male Wistar:Han rats by administration directly into the trachea via the mouth and vocal chords from a Penn-Century dry powder delivery device actuated via a 2 ml syringe containing air as a propellent.
(§3) Each of 3 animals receives a dose equivalent to 2.1 μmol/kg.

[2] = in vivo; conditions: male, Wistar:Han, rat, inhaled or intranasal, 2.1 umol/kg
Experimental: as §1, §2, §3

[3] = set-up: species or system Male Wistar:Han rats; conditions: rat, in vivo, inhaled or intranasal, 2.1 umol/kg, pH 6
Experimental: Male Wistar:Han rats used for this model are supplied by Harlan UK Ltd at 105 days of age and approximately 350 g weight. They are fed ad libitum with a standard laboratory diet and housed under controlled conditions (12 hours light/dark cycle; 20° C.) for at least one week prior to the experiment.
Compound A is dissolved, at a concentration of 1.75 mg/ml in 0.9% saline which has been acidified with 1M aqueous HCI (5 μl), giving a clear solution of pH 5.0. To the solution is added 1M aqueous NaOH (2μl) to increase the pH to 6.0, resulting in a very fine suspension. […] Each animal receives a 2.1 μmol/kg dose in 200 μl of suspension.
The following surgical procedure is used to prepare the animals for the experiment: the animals are anaesthetised, initially with 4% halothane, maintained with 2% halothane, both in a 1:1 oxygen: nitrous oxide mixture carrier. The anaesthetised animals are shaved on their ventral neck and craniodorsal back, then swabbed with a solution of 5% Hibitane in a 70% solution of ethanol in water. […] The patency of the cannula is assessed immediately before experimentation. […]
Withdrawn blood samples are analysed as follows: […]

absorption time T max ([1]; 6% blend with lactose, 2.1 μmol/kg): 10 min
SMILES: CCCOc1ccc(NS(C)(=O)=O)cc1-c1nc2c(c(C)nn2C)c(=O)[nH]1 [Compound D, 1,3-dimethyl-6-(2-propoxy-5-methanesulfonylamidophenyl)-1,5-dihydropyrazolo[3,4-d]pyrimidin-4-one]

Tmax [2]: 2 to 20 min
SMILES: CCOc1cnccc1-c1nc2n(C3CCCC3)[nH]c(CC)c-2c(=O)n1 [Compound C, 1-cyclopentyl-3-ethyl-6-(3-ethoxy-4-pyridyl)-pyrazolo[3,4-d]pyrimidin-4-one]

Tmax (absorption time; time to maximum concentration in plasma) [3]: 5 min | time to peak plasma concentration (absorption time Tmax) ([1]; citrate salt micronised to less than 5 μM, diluted by weight to 40% in lactose, nominal dose 8.4 μmol/kg, 3 rats): 2 min
SMILES: CCCc1nn(C)c2c(=O)[nH]c(-c3cc(S(=O)(=O)N4CCN(C)CC4)ccc3OCC)nc12 [Compound A, 5-[2-ethoxy-5-(4-methylpiperazinylsulfonyl)phenyl]-1-methyl-3-n-propyl-1,6-dihydro-7H-pyrazolo[4,3-d]pyrimidin-7-one]
